Measurements from PubChem BioAssay AID296 (DTP/NCI, 2004).
“And” between values parts separate entries of the source, which are not always exact repeats. Identical values can stand only once. Results filed as inconclusive are left out.

Tested on: MX-1 breast xenograft, nude mice, tumor weight T/C
Assay: NCI In Vivo Anticancer Drug Screen. Data for tumor model Human Mammary Carcinoma MX-1 Xenograft (intrarenal inoculation) in NU/NU Swiss (nude) mice
Conditions: endpoint: mean tumor weight change, higher = larger tumour
In short: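 Mice carrying the implanted tumor receive either test agent or vehicle. Tumor size or survival is then recorded for both groups. Results are stated as the treated-to-control quotient.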

[1] = dose: 600.0 mg/kg/injection, schedule: Q04DX003 (sc), vehicle: saline with Tween-80
[2] = dose: 1200.0 mg/kg/injection, schedule: Q04DX003 (sc), vehicle: saline with Tween-80
[3] = dose: 2400.0 mg/kg/injection, schedule: Q04DX003 (sc), vehicle: saline with Tween-80
[4] = dose: 300.0 mg/kg/injection, schedule: Q04DX003 (sc), vehicle: saline with Tween-80

CC(=O)OC(C)C1C2=C(C(=O)CC1(C)O)C(=O)c1c(ccc(-c3ccc4c(c3O)C(=O)C3=C(C4=O)C(C(C)OC(C)=O)C(C)(O)CC3=O)c1O)C2=O (configuration not stated)
T/C (dose: 7.5 mg/kg/injection, schedule: Q04DX003 (sc), vehicle: saline with Tween-80): 33 % of control
T/C (dose: 30.0 mg/kg/injection, schedule: Q04DX003 (sc), vehicle: saline with Tween-80): 98 % of control
T/C (dose: 60.0 mg/kg/injection, schedule: Q04DX003 (sc), vehicle: saline with Tween-80): 96 % of control

COc1cc(C(C)(C)C)cc(OC)c1C(O)(c1c(OC)cc(C(C)(C)C)cc1OC)c1c(OC)cc(C(C)(C)C)cc1OC
T/C [1]: 212 % of control
T/C [2]: 154 % of control
T/C [3]: 207 % of control

O=S(=O)(O)O.[NH-]C1CCCCC1[NH-].[Pt+2] (configuration not stated)
T/C (dose: 0.63 mg/kg/injection, schedule: Q01DX010 (sc), vehicle: dextrose): 95 % of control and 111 % of control and 115 % of control
T/C (dose: 2.5 mg/kg/injection, schedule: Q01DX010 (sc), vehicle: dextrose): 10 % of control and 12 % of control

O=[Te]=O
T/C (dose: 12.5 mg/kg/injection, schedule: Q04DX003 (sc), vehicle: suspension in saline): 91 % of control
T/C (dose: 25.0 mg/kg/injection, schedule: Q04DX003 (sc), vehicle: suspension in saline): 79 % of control
T/C (dose: 50.0 mg/kg/injection, schedule: Q04DX003 (sc), vehicle: suspension in saline): 122 % of control

CC1(C)N=C(N)N=C(N)N1c1ccc(CCCCc2ccc(S(=O)(=O)F)cc2Cl)c(Cl)c1
T/C (dose: 12.5 mg/kg/injection, schedule: Q01DX010 (sc), vehicle: suspension in saline): 87 % of control
T/C (dose: 25.0 mg/kg/injection, schedule: Q01DX010 (sc), vehicle: suspension in saline): 77 % of control
T/C (dose: 50.0 mg/kg/injection, schedule: Q01DX010 (sc), vehicle: suspension in saline): 57 % of control

CCCCCCCCCCCCCC#CC(=O)O
T/C (dose: 75.0 mg/kg/injection, schedule: Q04DX003 (sc), vehicle: saline with Tween-80): 87 % of control
T/C (dose: 150.0 mg/kg/injection, schedule: Q04DX003 (sc), vehicle: saline with Tween-80): 94 % of control
T/C [4]: 92 % of control
T/C [1]: 77 % of control

CCOC(=O)NC1=C(N2CC2)C(=O)C(NC(=O)OCC)=C(N2CC2)C1=O
T/C (dose: 1.56 mg/kg/injection, schedule: Q01DX010 (sc), vehicle: saline): 1 % of control
T/C (dose: 3.13 mg/kg/injection, schedule: Q01DX010 (sc), vehicle: saline): 3 % of control
T/C (dose: 3.13 mg/kg/injection, schedule: Q04DX003 (ip), vehicle: suspension in saline): 41 % of control
T/C (dose: 6.25 mg/kg/injection, schedule: Q04DX003 (ip), vehicle: suspension in saline): -44 % of control
T/C (dose: 12.5 mg/kg/injection, schedule: Q04DX003 (ip), vehicle: suspension in saline): -100 % of control

CCCCCCCCCCS(=O)CC(CO)NC(=O)/C=C/c1c(C)[nH]c(=O)[nH]c1=O (configuration not stated)
T/C (dose: 9.38 mg/kg/injection, schedule: Q04DX003 (sc), vehicle: distilled water + Tween-80): 88 % of control
T/C (dose: 18.75 mg/kg/injection, schedule: Q04DX003 (sc), vehicle: distilled water + Tween-80): 113 % of control
T/C (dose: 37.5 mg/kg/injection, schedule: Q04DX003 (sc), vehicle: distilled water + Tween-80): 46 % of control

C=C1C(=O)O[C@@H]2[C@H](O)[C@@H](C)[C@@H]3C=CC(=O)[C@@]3(C)[C@H](OC(=O)C=C(C)C)[C@H]12
T/C (dose: 9.38 mg/kg/injection, schedule: Q04DX003 (sc), vehicle: saline with Tween-80): 65 % of control
T/C (dose: 18.75 mg/kg/injection, schedule: Q04DX003 (sc), vehicle: saline with Tween-80): 105 % of control
T/C (dose: 37.5 mg/kg/injection, schedule: Q04DX003 (sc), vehicle: saline with Tween-80): 84 % of control

CC(=S)NC(O)C(=O)c1ccccc1 (configuration not stated)
T/C (dose: 200.0 mg/kg/injection, schedule: Q04DX003 (sc), vehicle: saline with Tween-80): 163 % of control
T/C (dose: 400.0 mg/kg/injection, schedule: Q04DX003 (sc), vehicle: saline with Tween-80): 122 % of control
T/C (dose: 800.0 mg/kg/injection, schedule: Q04DX003 (sc), vehicle: saline with Tween-80): 152 % of control
T/C (dose: 1600.0 mg/kg/injection, schedule: Q04DX003 (sc), vehicle: saline with Tween-80): 123 % of control

CC1=C2CC(C)(C)/C=C\C(=O)/C(C)=C\C3=C[C@H](C)C[C@]3(O2)C1=O
T/C (dose: 12.5 mg/kg/injection, schedule: Q04DX003 (sc), vehicle: Klucel (hydroxypropylcellulose) (HPC)): 84 % of control
T/C (dose: 25.0 mg/kg/injection, schedule: Q04DX003 (sc), vehicle: Klucel (hydroxypropylcellulose) (HPC)): 100 % of control
T/C (dose: 50.0 mg/kg/injection, schedule: Q04DX003 (sc), vehicle: Klucel (hydroxypropylcellulose) (HPC)): 82 % of control

Cc1ccc(S(=O)(=O)NC(=S)S)cc1
T/C (dose: 200.0 mg/kg/injection, schedule: Q01DX010 (sc), vehicle: saline with Tween-80): 98 % of control
T/C (dose: 400.0 mg/kg/injection, schedule: Q01DX010 (sc), vehicle: saline with Tween-80): 93 % of control

CCCCCCOC(CN(C)C)C(Cl)(Cl)Cl (configuration not stated)
T/C [4]: 70 % of control
T/C [1]: 69 % of control
T/C [2]: 71 % of control
T/C [3]: 58 % of control

COc1cccc2c1C(=O)c1c(O)c3c(c(O)c1C2=O)C[C@@](O)(C(=O)CO)C[C@@H]3OC1CC(N)C(O)C(C)O1 (some centres not stated)
T/C (dose: 0.25 mg/kg/injection, schedule: Q01DX010 (ip), vehicle: water): 46 % of control
T/C (dose: 0.5 mg/kg/injection, schedule: Q01DX010 (ip), vehicle: water): 37 % of control
T/C (dose: 0.75 mg/kg/injection, schedule: Q01DX010 (sc), vehicle: saline): 159 % of control
T/C (dose: 1.0 mg/kg/injection, schedule: Q01DX010 (ip), vehicle: water): 10 % of control
T/C (dose: 1.5 mg/kg/injection, schedule: Q01DX010 (sc), vehicle: saline): 84 % of control
T/C (dose: 3.0 mg/kg/injection, schedule: Q01DX010 (sc), vehicle: saline): 94 % of control
T/C (dose: 4.0 mg/kg/injection, schedule: Q04DX003 (sc), vehicle: water): 61 % of control
T/C (dose: 6.0 mg/kg/injection, schedule: Q01DX010 (sc), vehicle: saline): 52 % of control
T/C (dose: 6.0 mg/kg/injection, schedule: Q01DX010 (sc), vehicle: water): 69 % of control
T/C (dose: 8.0 mg/kg/injection, schedule: Q04DX003 (sc), vehicle: water): 61 % of control

COc1cc([C@@H]2c3cc4c(cc3[C@@H](OC3OC5CO[C@@H](c6cccs6)OC5C(O)C3O)[C@H]3COC(=O)[C@H]23)OCO4)cc(OC)c1O (some centres not stated)
T/C (dose: 8.0 mg/kg/injection, schedule: Q01DX010 (sc), vehicle: saline): 67 % of control
T/C (dose: 16.0 mg/kg/injection, schedule: Q01DX010 (sc), vehicle: saline): 60 % of control
T/C (dose: 32.0 mg/kg/injection, schedule: Q01DX010 (sc), vehicle: saline): 96 % of control
T/C (dose: 64.0 mg/kg/injection, schedule: Q01DX010 (sc), vehicle: saline): 44 % of control
T/C (dose: 66.0 mg/kg/injection, schedule: Q01DX010 (sc), vehicle: saline): 55 % of control
T/C (dose: 132.0 mg/kg/injection, schedule: Q01DX010 (sc), vehicle: saline): 34 % of control
T/C (dose: 264.0 mg/kg/injection, schedule: Q01DX010 (sc), vehicle: saline): 40 % of control
T/C (dose: 528.0 mg/kg/injection, schedule: Q01DX010 (sc), vehicle: saline): 79 % of control

C=C(C)[C@]12CC(C)C34OC(/C=C\C=C\CCCCCCCCC)(O[C@@H]1[C@@H]3[C@@H]1O[C@]1(CO)[C@@H](O)[C@]1(O)C(=O)C(C)=C[C@@H]41)O2 (some centres not stated)
T/C (dose: 6.0 mg/kg/injection, schedule: Q04DX003 (sc), vehicle: distilled water + alcohol): 102 % of control
T/C (dose: 12.0 mg/kg/injection, schedule: Q04DX003 (sc), vehicle: distilled water + alcohol): 95 % of control

O=c1[nH]cnc2[nH]ncc12
T/C (dose: 150.0 mg/kg/injection, schedule: Q04DX003 (sc), vehicle: suspension in saline): 46 % of control
T/C (dose: 300.0 mg/kg/injection, schedule: Q04DX003 (sc), vehicle: suspension in saline): 44 % of control
T/C (dose: 600.0 mg/kg/injection, schedule: Q04DX003 (sc), vehicle: suspension in saline): 119 % of control
T/C (dose: 1200.0 mg/kg/injection, schedule: Q04DX003 (sc), vehicle: suspension in saline): 112 % of control

CN(C=O)C(C(=O)Nc1cccc2c(OC(=O)C(N(C)C=O)(N(C)C=O)N(C)C=O)c(N=Nc3ccc(S(=O)(=O)Nc4nccs4)cc3)cc(N=Nc3ccc(S(=O)(=O)Nc4nccs4)cc3)c12)(N(C)C=O)N(C)C=O (tested in a mixture with another compound)
T/C [4]: 108 % of control
T/C [3]: 90 % of control

O=C(O)C1(C(=O)O)CCC1.[NH2-].[NH2-].[Pt+2]
T/C (dose: 12.5 mg/kg/injection, schedule: Q01DX010 (sc), vehicle: dextrose): 2 % of control and 11 % of control
T/C (dose: 50.0 mg/kg/injection, schedule: Q01DX010 (sc), vehicle: dextrose): -87 % of control and -75 % of control

O=CC(=O)c1ccc(O)cc1
T/C (dose: 150.0 mg/kg/injection, schedule: Q04DX003 (sc), vehicle: saline): 95 % of control
T/C (dose: 300.0 mg/kg/injection, schedule: Q04DX003 (sc), vehicle: saline): 69 % of control
